The values below come from paper PMC6021502, “Cannabigerol Action at Cannabinoid CB1 and CB2 Receptors and at CB1–CB2 Heteroreceptor Complexes” (Frontiers in Pharmacology, 2018).

Molecules are shown by their SMILES. Entries after “also recorded” stand apart in the source; their conditions may differ. Like-named read-outs stand apart in the source and are kept apart here.

Assay [1] deals with T1, CB2R.
T1 construct: expressed in transfected cells; host or cells: HEK-293T, transient transfection (PEI)
Kind of assay: β-arrestin 2 recruitment (BRET) in HEK-293T cells. It is filed as cell-based, human. On the procedure:
(§1) HEK-293T cells were grown in DMEM medium (Gibco, Paisley, Scotland, United Kingdom) supplemented with 2 mM L-glutamine, 100 U/mL penicillin/streptomycin, MEM Non-Essential Amino Acids Solution (1/100) and 5% (v/v) heat inactivated Foetal Bovine Serum (FBS) (Invitrogen, Paisley, Scotland, United Kingdom). […] Cells were transiently transfected with the PEI (Polyethylenimine, Sigma, St. Louis, MO, United States) method as previously described ([Medrano et al., 2017]; [Navarro et al., 2018b]) and used for functional assays 48 h later (unless otherwise stated).
(§2) Arrestin recruitment was determined as previously described ([Medrano et al., 2017]; [Navarro et al., 2018b]). Briefly, BRET experiments were performed in HEK-293T cells 48 h after transfection with the cDNA corresponding to the CB2R-YFP or CB1R-YFP and 1 μg cDNA corresponding to β-arrestin 2-Rluc. Cells (20 μg protein) were distributed in 96-well microplates (Corning 3600, white plates with white bottom) and were incubated with CBG for 15 min and stimulated with the agonist for 10 min prior the addition of 5 μM coelenterazine H (Molecular Probes, Eugene, OR, United States). After 1 min of adding coelenterazine H, BRET between β-arrestin 2-Rluc and receptor-YFP was determined and quantified. The readings were collected using a Mithras LB 940 (Berthold Technologies, Bad Wildbad, Germany) that allows the integration of the signals detected in the short-wavelength filter at 485 nm and the long-wavelength filter at 530 nm. To quantify protein-RLuc expression luminescence readings were also performed 10 min of adding 5 μM coelenterazine H.
(Activated receptors often draw arrestin, which recruitment assays turn into a signal.)

Assay [2] deals with T2, CB1R.
T2 construct: expressed in transfected cells; host or cells: HEK-293T, transient transfection (PEI)
Briefly: β-arrestin 2 recruitment (BRET) in HEK-293T cells. The class given is cell-based, human. Here is the method:
as §1, §2

Another assay has as its target TRPA1. To be noted: ref De Petrocellis et al., cited from earlier work.
In assay [3] the test system is PPARγ transcriptional activity. The arrangement: method as in Granja et al., 2012; Nadal et al., 2017. To be noted: high concentrations, 10–25 μM range; ref Granja et al., 2012; Nadal et al., 2017; cited from earlier work.
For assay [4], the system named is macrophages. Also on record: method as in Borrelli et al., 2013. To be noted: ref Borrelli et al., 2013; cited from earlier work.
For a further assay, the target named is T3, human CB2 receptor (Homo sapiens, UniProt P34972).
T3 construct: expressed in transfected cells; membranes
Briefly: [3H]-WIN-55,212-2 competition binding, CHO membranes.

Assay [5] addresses CB2R. To be noted: cited from earlier work.
Assay [6] concerns macrophages. Also on record: method as in Giacoppo et al., 2017. To be noted: in vitro; blocked by AM630, not by SR141716A; ref Giacoppo et al., 2017; cited from earlier work.
For the next assay, the system named is TRPM8 channels. The arrangement: method as in De Petrocellis et al., 2011. To be noted: ref De Petrocellis et al., 2011; read-out: IC50, antagonist of TRPM8 channels; cited from earlier work.
Another assay deals with T4, human CB1 receptor (Homo sapiens, UniProt P21554).
T4 construct: expressed in transfected cells; membranes
Briefly: biochemical. The class given is binding.

Assay [7] concerns T5, CB1R and CB2R (CB1–CB2 heteroreceptor complexes).
T5 construct: expressed in transfected cells; host or cells: HEK-293T, transient co-transfection (PEI)
Kind of assay: Label-free dynamic mass redistribution (DMR) in HEK-293T cells co-expressing both receptors. The class given is cell-based, human. On the procedure: as §1
Cell mass redistribution induced upon receptor activation was detected by illuminating the underside of a biosensor with polychromatic light and measuring the changes in the wavelength of the reflected monochromatic light. The magnitude of this wavelength shift (in picometers) is directly proportional to the amount of DMR. […] Hereafter, the sensor plate was scanned and a baseline optical signature was recorded for 10 min before adding 10 μL of CBG for 30 min followed by the addition of 10 μL of specific agonists; all test compounds were dissolved in assay buffer. The cell signaling signature was determined using an EnSpire® Multimode Plate Reader (PerkinElmer, Waltham, MA, United States) by a label-free technology. Then, DMR responses were monitored for at least 5,000 s. Results were analyzed using EnSpire Workstation Software v 4.10.

In the next assay the target is PPARγ. Also on record: method as in Granja et al., 2012; Nadal et al., 2017. To be noted: ref Granja et al., 2012; Nadal et al., 2017; cited from earlier work.
The test system of another assay is α2-adrenoceptor. Also on record: method as in Cascio et al., 2010. To be noted: ref Cascio et al., 2010; read-out: EC50 as α2-adrenoceptor agonist; cited from earlier work.
Another assay has as its target T6, SNAP-CB2R (Homo sapiens, UniProt P34972).
T6 construct: host or cells: HEK-293T, transient transfection (PEI)
Briefly: Homogeneous HTRF competition binding in living HEK-293T cells (fluorophore-conjugated CM-157). To be noted: living HEK-293T cells expressing SNAP-CB2R, 20 nM fluorescent ligand.

Another assay relates to AEA cell uptake. Also on record: method as in De Petrocellis et al., 2011. To be noted: ref De Petrocellis et al., 2011; read-out: Ki, inhibitor of AEA cell uptake; cited from earlier work.
Assay [8] has as its target CB1R. To be noted: cited from earlier work.

The term Ki denotes a dissociation constant, usually derived from enzyme kinetics or from competition with a known ligand. As usually defined, the IC50 is the concentration at which inhibition is half-maximal.

T4 sequence (P21554 whole entry): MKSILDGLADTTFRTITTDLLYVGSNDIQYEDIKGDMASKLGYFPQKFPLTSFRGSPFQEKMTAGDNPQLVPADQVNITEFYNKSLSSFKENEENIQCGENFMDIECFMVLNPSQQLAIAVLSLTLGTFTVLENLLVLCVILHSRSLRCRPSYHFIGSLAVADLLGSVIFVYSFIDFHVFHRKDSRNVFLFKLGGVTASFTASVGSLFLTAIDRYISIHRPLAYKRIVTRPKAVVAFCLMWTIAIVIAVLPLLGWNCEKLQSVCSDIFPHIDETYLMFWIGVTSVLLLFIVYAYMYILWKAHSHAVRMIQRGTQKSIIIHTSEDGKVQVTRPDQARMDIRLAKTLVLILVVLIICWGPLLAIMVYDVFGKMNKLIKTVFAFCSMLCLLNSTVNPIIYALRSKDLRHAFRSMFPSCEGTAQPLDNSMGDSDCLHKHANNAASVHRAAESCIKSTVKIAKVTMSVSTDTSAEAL
T3 sequence (P34972 whole entry): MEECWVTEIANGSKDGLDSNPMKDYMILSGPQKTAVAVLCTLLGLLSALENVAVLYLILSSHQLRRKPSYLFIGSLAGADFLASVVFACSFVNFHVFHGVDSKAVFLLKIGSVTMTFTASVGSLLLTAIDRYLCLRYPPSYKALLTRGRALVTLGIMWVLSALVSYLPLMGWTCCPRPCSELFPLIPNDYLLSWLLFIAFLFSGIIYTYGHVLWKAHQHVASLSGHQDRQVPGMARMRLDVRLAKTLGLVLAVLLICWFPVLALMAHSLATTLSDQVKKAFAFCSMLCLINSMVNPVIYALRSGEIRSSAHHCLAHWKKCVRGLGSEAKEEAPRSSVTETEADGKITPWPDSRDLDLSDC
T6 sequence (P34972 whole entry): as above

Consider `CCCCCc1cc(O)c(C/C=C(\C)CCC=C(C)C)c(O)c1` [CBG, cannabigerol], for which, in the assay with CB2R [1] (100 nM or 1 μM CBG, 100 nM AEA or JWH133, CB2R), the “Effect on β-arrestin recruitment induced by agonists” value is “did not affect”. The β-arrestin recruitment result is listed as “noteworthy” with CB2R [1] (CBG alone, 1 nM to 10 μM, CB2R-expressing cells) and “small increase” in the assay with CB1R [2] (CBG alone, 1 nM to 10 μM, CB1R-expressing cells). In addition, the “Effect on agonist-induced β-arrestin recruitment” value with CB1R [2] (100 nM or 1 μM CBG, 100 nM AEA or ACEA, CB1R) is given as “unable to modify”. In addition, the “EC50 values, transient receptor potential channels of ankyrin type-1” value at TRPA1 (2008) is listed as “micromolar range”. Further, the EC50 with TRPA1 (2011, read-out: EC50, agonist/desensitizer of TRPA1) was 700 nM; in the assay on α2-adrenoceptor, 0.2 nM. The “Effect on PPARγ transcriptional activity” value in assay [3] was “may enhance the PPARγ transcriptional activity”. For the same compound, the “Nitrite release from macrophages after LPS stimulation” value with macrophages [4] is “reduce”. In addition, the Ki at human CB2 receptor (radioligand 3 nM [3H]-WIN-55,212-2, CHO membranes, read-out: CB2 – Ki) was 2660 nM; on human CB2 receptor (radioligand [3H]-WIN-55,212-2, read-out: Ki, competition of [3H]-WIN-55,212-2 binding to CB2R) it was 2700 nM; on CB2R [5] (CHO cells expressing the human CB2R, preliminary results, ref Gauson et al., 2007, Pertwee, 2008) it was 300 to 500 nM; at CB2R [5] (CHO cells expressing the human receptor, ref Cascio et al., 2010), 2600 nM; on human CB1 receptor it was greater than 30000 nM; at PPARγ, 11700 nM. The Ki on SNAP-CB2R was 152 nM; in the assay on AEA cell uptake, 11300 nM; at CB1R [8] (membranes from mice brain, preliminary results, ref Gauson et al., 2007, Pertwee, 2008), 300 to 500 nM; at CB1R [8] (mouse brain membranes, ref Cascio et al., 2010), 381 nM. In addition, the “Protection of macrophages against oxidative stress” value in the assay on macrophages [6] is given as “protection of macrophages against oxidative stress”. Also, the half-maximal inhibitory concentration (IC50) in the assay with TRPM8 channels is 160 nM. Moreover, the “Displacement of [3H]-WIN-55,212-2 from CB1R” value at human CB1 receptor is on record as “not able to displace the radioligand; also recorded: unable to compete”. The “Effect on agonist actions on DMR read-outs” value in [7] (100 nM CBG pretreatment, cells co-expressing CB1R and CB2R) is “negative modulation of the ACEA effect on ERK1/2 phosphorylation and DMR, and of the AEA effect on DMR read-outs”. Besides, the DMR signal result in [7] (CBG alone, dose-effect, cells expressing CB1R and CB2R) is “additive”.
